The values that follow come from ChEMBL document CHEMBL1123483, “Inhibition of chicken liver dihydrofolate reductase by 5-(substituted benzyl)-2,4-diaminopyrimidines. A quantitative structure-activity relationship and graphics analysis” (J Med Chem, 1986).

What is called logD is lipophilicity at a set pH, counting ionised and neutral species.

The nature of the first data set: Partition coefficient (logD) (aqueous phase 0.1 N HCl). In kind it is physicochemical. As to conditions: 0.1 N HCl (aqueous phase); read-out: logD.
For `COc1ccc(Cc2cnc(N)nc2N)cc1`, the pH-dependent lipophilicity (logD) stood at 1.34. Turning to `Nc1ccc(Cc2cnc(N)nc2N)cc1`, the logD turned out to be 0.26.

Consider `COc1cc(Cc2cnc(N)nc2N)cc(OC)c1SC` [METIOPRIM], for which the log distribution coefficient (logD) was found to be 1.6.

For the compound `CCOc1cc(Cc2cnc(N)nc2N)cc(OCC)c1`, the logD amounted to 2.52. Regarding `Nc1ncc(Cc2ccc3c(c2)OCO3)c(N)n1`, the logD was determined as 1.52. For the compound `CCCCCCCCOc1cc(Cc2cnc(N)nc2N)ccc1OC`, the pH-dependent lipophilicity (logD) was determined as 2.55.

On to `COc1cc(Cc2cnc(N)nc2N)cc(OC)c1Br` [BRODIMOPRIM], for which the pH-dependent lipophilicity (logD) is 2.04. Regarding `COc1cc(Cc2cnc(N)nc2N)cc(OC)c1N(C)C` [ADITOPRIM], the log distribution coefficient (logD) turned out to be 1.51. Regarding `CCc1cc(Cc2cnc(N)nc2N)cc(CC)c1CC`, the logD came to 1.55. Still for that read-out and setting: with `COc1cc(Cc2cnc(N)nc2N)cc(OC)c1` the figure was 1.6; with `COCCOc1c(OC)cc(Cc2cnc(N)nc2N)cc1OC` [TETROXOPRIM], -1.81; with `COc1ccc(Cc2cnc(N)nc2N)cc1OC` [DIAVERIDINE], 1.

As for `C=C(C)c1c(OC)cc(Cc2cnc(N)nc2N)cc1OC`, the logD stood at 3.07. Take `COCCOc1cccc(Cc2cnc(N)nc2N)c1`: the logD is -1.33.

The data set is the same for the next values; noted with them: octanol/water.
Turning to `COCCOc1ccc(Cc2cnc(N)nc2N)cc1OCCOC`, the logD is -1.89.
